Experimental data from patent US20210403485A1, “PYRAZOLOPYRIMIDINE DERIVATIVE AS SELECTIVE TRK INHIBITOR” (SHANDONG LUYE PHARMACEUTICAL CO., LTD., priority 2018, published 2021).

What was measured:
Ba/F3 ETV6-NTRK3 cells = assay: Efficacy test in animals: subcutaneous xenograft, intragastric administration; assay type: in vivo, nude mice; settings: for TGI (tumor growth inhibition rate): day of dissection; for Tumor inhibition rate (by tumor weight) / Tumor weight: end of the test
Protocol: Cells in the logarithmic growth phase were collected and resuspended in serum-free medium to a cell concentration of 2-4×10^7 cells/mL. An equal volume of matrigel was added to the cell suspension to achieve a final cell concentration of 1-2×10^7 cells/mL. 0.2 mL of tumor cell suspension was subcutaneously inoculated at the scapula of each nude mouse with the inoculation amount of 2-4×10^6 cells/mouse to prepare the animal models.

Ba/F3 SLC34A2-ROS1-WT = target: T1, Ba/F3 SLC34A2-ROS1-WT (Homo sapiens, UniProt P08922); assay: Inhibitory activity against cell proliferation (CellTiter-Glo, 72 hours); assay type: cell-based; settings: read-out: Half maximal inhibitory concentration IC50 of cells, Ba/F3 SLC34A2-ROS1-WT
T1 construct: fused on or other part: N-terminal part of SLC34A2 as fusion partner (part of the key); O95436 (Sodium-dependent phosphate transport protein 2B)
T1 sequence (P08922 whole entry, stated change not applied, the tested form may be a part): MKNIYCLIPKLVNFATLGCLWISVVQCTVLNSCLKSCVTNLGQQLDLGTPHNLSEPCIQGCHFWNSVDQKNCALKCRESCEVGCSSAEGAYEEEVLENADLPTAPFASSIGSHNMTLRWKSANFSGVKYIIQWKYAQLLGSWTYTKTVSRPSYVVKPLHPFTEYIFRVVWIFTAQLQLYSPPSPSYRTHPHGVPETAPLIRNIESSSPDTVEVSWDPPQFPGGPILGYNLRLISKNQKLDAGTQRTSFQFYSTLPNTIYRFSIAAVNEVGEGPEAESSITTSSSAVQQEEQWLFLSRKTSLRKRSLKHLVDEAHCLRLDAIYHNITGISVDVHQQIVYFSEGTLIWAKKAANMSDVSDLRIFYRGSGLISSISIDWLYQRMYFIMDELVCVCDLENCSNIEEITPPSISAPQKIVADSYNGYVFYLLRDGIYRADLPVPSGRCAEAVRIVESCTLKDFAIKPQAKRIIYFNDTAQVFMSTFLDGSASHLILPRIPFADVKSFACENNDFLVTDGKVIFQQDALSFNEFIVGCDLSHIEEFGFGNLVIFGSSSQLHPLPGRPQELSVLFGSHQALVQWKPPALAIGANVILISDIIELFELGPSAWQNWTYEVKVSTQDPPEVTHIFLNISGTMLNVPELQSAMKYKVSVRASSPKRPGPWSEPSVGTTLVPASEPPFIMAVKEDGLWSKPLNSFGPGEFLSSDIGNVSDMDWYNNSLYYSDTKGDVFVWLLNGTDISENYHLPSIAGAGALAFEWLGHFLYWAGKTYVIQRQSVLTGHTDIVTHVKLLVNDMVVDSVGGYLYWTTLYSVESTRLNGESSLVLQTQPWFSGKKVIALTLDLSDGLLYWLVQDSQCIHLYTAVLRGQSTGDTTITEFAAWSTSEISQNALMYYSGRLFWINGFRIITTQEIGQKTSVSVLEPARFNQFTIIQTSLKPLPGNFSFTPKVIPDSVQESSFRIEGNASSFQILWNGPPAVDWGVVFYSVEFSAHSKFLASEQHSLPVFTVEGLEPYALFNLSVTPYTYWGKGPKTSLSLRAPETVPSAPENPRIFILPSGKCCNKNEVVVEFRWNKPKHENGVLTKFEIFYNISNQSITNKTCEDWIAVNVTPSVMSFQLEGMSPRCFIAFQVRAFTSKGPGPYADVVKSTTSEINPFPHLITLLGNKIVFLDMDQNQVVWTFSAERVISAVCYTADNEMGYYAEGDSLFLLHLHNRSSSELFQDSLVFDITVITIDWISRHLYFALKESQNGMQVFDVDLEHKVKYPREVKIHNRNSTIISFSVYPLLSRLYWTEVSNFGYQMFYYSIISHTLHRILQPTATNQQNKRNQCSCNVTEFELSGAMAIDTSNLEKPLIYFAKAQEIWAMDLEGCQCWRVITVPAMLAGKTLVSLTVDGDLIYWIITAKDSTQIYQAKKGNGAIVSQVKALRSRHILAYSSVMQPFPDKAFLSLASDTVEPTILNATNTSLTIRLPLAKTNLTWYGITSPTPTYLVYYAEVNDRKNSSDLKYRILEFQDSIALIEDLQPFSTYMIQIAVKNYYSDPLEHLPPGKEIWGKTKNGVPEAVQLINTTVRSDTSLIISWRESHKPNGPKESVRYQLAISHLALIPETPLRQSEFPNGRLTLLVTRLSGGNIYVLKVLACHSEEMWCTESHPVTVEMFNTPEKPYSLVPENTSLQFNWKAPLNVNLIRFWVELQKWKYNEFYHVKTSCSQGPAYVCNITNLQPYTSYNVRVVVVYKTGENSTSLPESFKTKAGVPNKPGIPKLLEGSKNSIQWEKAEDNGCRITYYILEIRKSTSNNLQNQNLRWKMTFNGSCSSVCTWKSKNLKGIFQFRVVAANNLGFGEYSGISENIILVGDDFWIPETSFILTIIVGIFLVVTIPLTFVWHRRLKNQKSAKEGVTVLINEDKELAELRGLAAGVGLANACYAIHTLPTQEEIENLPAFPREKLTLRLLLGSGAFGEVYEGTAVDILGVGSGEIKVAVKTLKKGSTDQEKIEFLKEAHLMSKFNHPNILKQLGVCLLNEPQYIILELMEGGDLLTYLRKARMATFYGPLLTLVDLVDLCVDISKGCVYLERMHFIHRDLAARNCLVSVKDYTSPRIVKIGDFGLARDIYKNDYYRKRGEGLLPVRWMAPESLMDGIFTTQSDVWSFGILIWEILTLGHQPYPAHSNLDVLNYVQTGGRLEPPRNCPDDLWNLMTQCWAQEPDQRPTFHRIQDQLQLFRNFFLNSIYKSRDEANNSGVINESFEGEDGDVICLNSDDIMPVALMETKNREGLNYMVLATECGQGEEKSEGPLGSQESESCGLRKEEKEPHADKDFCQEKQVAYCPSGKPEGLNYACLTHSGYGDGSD
Protocol: Adenosine Triphosphate (ATP) is an energy carrier commonly used in various life activities in nature, and is the minimum unit for energy storage and transfer. The CellTiter-Glo™ cell viability assay kit uses luciferase as an assay agent, which requires the involvement of ATP in luminescence. The CellTiter-Glo™ reagent is added into cell culture medium to measure the luminescence value. The luminescence signal is directly proportional to the amount of ATP in the system, and the ATP is positively correlated with the number of viable cells. Therefore, the proliferation of cells can be detected by detecting the ATP content using the CellTiter-Glo kit.
a) Cells in the logarithmic growth phase were collected and counted using a […]. The cell viability was detected by the trypan blue exclusion method, and the cell viability was kept over 90%.
b) The cell concentration was adjusted; 90 μL of the cell suspension was added to a 96-well plate.
a) A 10-fold compound solution was prepared, with the highest concentration being 10 μM (a total of 9 concentrations, 3-fold dilution). 10 μL of compound solution was added to each well of a 96-well plate inoculated with cells, and three duplicate wells were set for each compound concentration.
a) The CTG reagent was thawed and the cell plate was equilibrated to room temperature for 30 minutes.
b) An equal volume of CTG solution was added to each well.
c) The plate was shaken on an orbital shaker for 5 minutes to lyse the cells.
d) The cell plate was placed at room temperature for 20 minutes to stabilize the luminescence signal.
e) The luminescence value was read.
The data were analyzed using GraphPad Prism 5.0 software, fitted with nonlinear S-curve regression to give dose-response curves, and IC50 values were calculated therefrom.

Question: Which “Inhibition of growth of subcutaneous xenografts” value (Ba/F3 ETV6-NTRK3 cells; 2.5-20 mg/kg) does the source give for `O=C1NC2(CC2)COc2ncc(F)cc2C2COCCN2c2ccn3ncc1c3n2` (single isomer, unassigned) [WX001B] here?
Answer: in a dose-dependent manner

Question: And the “Relative tumor proliferation rate T/C” value (Ba/F3 ETV6-NTRK3 cells; Day 0, 2.5 mg/kg bid)?
Answer: 100.00%

Question: And the Tumor volume (Ba/F3 ETV6-NTRK3 cells; Day 0, 2.5 mg/kg bid)?
Answer: 303.54 ± 48.83 mm^3

Question: What about the “Relative tumor proliferation rate T/C” value (Ba/F3 ETV6-NTRK3 cells; Day 0, 5 mg/kg bid) of the same molecule?
Answer: 100.00%

Question: And the Tumor volume (Ba/F3 ETV6-NTRK3 cells; Day 0, 5 mg/kg bid)?
Answer: 303.26 ± 50.47 mm^3

Question: And the “Relative tumor proliferation rate T/C” value (Ba/F3 ETV6-NTRK3 cells; Day 0, 10 mg/kg bid)?
Answer: 100.00%

Question: What about the Tumor volume (Ba/F3 ETV6-NTRK3 cells; Day 0, 10 mg/kg bid) of the same molecule?
Answer: 303.14 ± 45.09 mm^3

Question: And the “Relative tumor proliferation rate T/C” value (Ba/F3 ETV6-NTRK3 cells; Day 0, 20 mg/kg bid)?
Answer: 100.00%

Question: What about the Tumor volume (Ba/F3 ETV6-NTRK3 cells; Day 0, 20 mg/kg bid) of the same molecule?
Answer: 303.47 ± 45.79 mm^3

Question: What about the “Relative tumor proliferation rate T/C” value (Ba/F3 ETV6-NTRK3 cells; Day 3, 2.5 mg/kg bid) of the same molecule?
Answer: 42.59%

Question: What about the Tumor volume (Ba/F3 ETV6-NTRK3 cells; Day 3, 2.5 mg/kg bid) of the same molecule?
Answer: 360.24 ± 88.80 mm^3

Question: And the “Relative tumor proliferation rate T/C” value (Ba/F3 ETV6-NTRK3 cells; Day 3, 5 mg/kg bid)?
Answer: 43.90%

Question: What about the Tumor volume (Ba/F3 ETV6-NTRK3 cells; Day 3, 5 mg/kg bid) of the same molecule?
Answer: 371.36 ± 111.74 mm^3

Question: What about the “Relative tumor proliferation rate T/C” value (Ba/F3 ETV6-NTRK3 cells; Day 3, 10 mg/kg bid) of the same molecule?
Answer: 30.18%

Question: What about the Tumor volume (Ba/F3 ETV6-NTRK3 cells; Day 3, 10 mg/kg bid) of the same molecule?
Answer: 255.24 ± 87.04 mm^3

Question: What about the “Relative tumor proliferation rate T/C” value (Ba/F3 ETV6-NTRK3 cells; Day 3, 20 mg/kg bid) of the same molecule?
Answer: 31.16%

Question: And the Tumor volume (Ba/F3 ETV6-NTRK3 cells; Day 3, 20 mg/kg bid)?
Answer: 263.60 ± 85.49 mm^3

Question: What about the “Relative tumor proliferation rate T/C” value (Ba/F3 ETV6-NTRK3 cells; Day 5, 2.5 mg/kg bid) of the same molecule?
Answer: 29.79%

Question: And the Tumor volume (Ba/F3 ETV6-NTRK3 cells; Day 5, 2.5 mg/kg bid)?
Answer: 376.59 ± 84.87 mm^3

Question: What about the “Relative tumor proliferation rate T/C” value (Ba/F3 ETV6-NTRK3 cells; Day 5, 5 mg/kg bid) of the same molecule?
Answer: 22.33%

Question: And the Tumor volume (Ba/F3 ETV6-NTRK3 cells; Day 5, 5 mg/kg bid)?
Answer: 282.31 ± 46.30 mm^3

Question: What about the “Relative tumor proliferation rate T/C” value (Ba/F3 ETV6-NTRK3 cells; Day 5, 10 mg/kg bid) of the same molecule?
Answer: 19.15%

Question: What about the Tumor volume (Ba/F3 ETV6-NTRK3 cells; Day 5, 10 mg/kg bid) of the same molecule?
Answer: 242.09 ± 78.53 mm^3

Question: And the “Relative tumor proliferation rate T/C” value (Ba/F3 ETV6-NTRK3 cells; Day 5, 20 mg/kg bid)?
Answer: 22.72%

Question: And the Tumor volume (Ba/F3 ETV6-NTRK3 cells; Day 5, 20 mg/kg bid)?
Answer: 287.22 ± 96.26 mm^3

Question: What about the “Relative tumor proliferation rate T/C” value (Ba/F3 ETV6-NTRK3 cells; Day 7, 2.5 mg/kg bid) of the same molecule?
Answer: 18.12%

Question: What about the Tumor volume (Ba/F3 ETV6-NTRK3 cells; Day 7, 2.5 mg/kg bid) of the same molecule?
Answer: 388.09 ± 100.42 mm^3

Question: What about the “Relative tumor proliferation rate T/C” value (Ba/F3 ETV6-NTRK3 cells; Day 7, 5 mg/kg bid) of the same molecule?
Answer: 16.77%

Question: What about the Tumor volume (Ba/F3 ETV6-NTRK3 cells; Day 7, 5 mg/kg bid) of the same molecule?
Answer: 353.35 ± 109.82 mm^3

Question: And the “Relative tumor proliferation rate T/C” value (Ba/F3 ETV6-NTRK3 cells; Day 7, 10 mg/kg bid)?
Answer: 12.50%

Question: And the Tumor volume (Ba/F3 ETV6-NTRK3 cells; Day 7, 10 mg/kg bid)?
Answer: 263.53 ± 134.53 mm^3

Question: What about the “Relative tumor proliferation rate T/C” value (Ba/F3 ETV6-NTRK3 cells; Day 7, 20 mg/kg bid) of the same molecule?
Answer: 9.56%

Question: And the Tumor volume (Ba/F3 ETV6-NTRK3 cells; Day 7, 20 mg/kg bid)?
Answer: 201.43 ± 135.76 mm^3

Question: And the “Relative tumor proliferation rate T/C” value (Ba/F3 ETV6-NTRK3 cells; Day 9, 2.5 mg/kg bid)?
Answer: 18.22%

Question: What about the Tumor volume (Ba/F3 ETV6-NTRK3 cells; Day 9, 2.5 mg/kg bid) of the same molecule?
Answer: 499.09 ± 161.54 mm^3

Question: What about the “Relative tumor proliferation rate T/C” value (Ba/F3 ETV6-NTRK3 cells; Day 9, 5 mg/kg bid) of the same molecule?
Answer: 16.04%

Question: What about the Tumor volume (Ba/F3 ETV6-NTRK3 cells; Day 9, 5 mg/kg bid) of the same molecule?
Answer: 439.46 ± 222.47 mm^3

Question: And the “Relative tumor proliferation rate T/C” value (Ba/F3 ETV6-NTRK3 cells; Day 9, 10 mg/kg bid)?
Answer: 7.73%

Question: And the Tumor volume (Ba/F3 ETV6-NTRK3 cells; Day 9, 10 mg/kg bid)?
Answer: 211.85 ± 87.87 mm^3

Question: And the “Relative tumor proliferation rate T/C” value (Ba/F3 ETV6-NTRK3 cells; Day 9, 20 mg/kg bid)?
Answer: 4.91%

Question: And the Tumor volume (Ba/F3 ETV6-NTRK3 cells; Day 9, 20 mg/kg bid)?
Answer: 134.49 ± 117.51 mm^3

Question: What about the “Relative tumor proliferation rate T/C” value (Ba/F3 ETV6-NTRK3 cells; Day 11, 2.5 mg/kg bid) of the same molecule?
Answer: 15.67%

Question: And the Tumor volume (Ba/F3 ETV6-NTRK3 cells; Day 11, 2.5 mg/kg bid)?
Answer: 590.74 ± 266.98 mm^3

Question: And the “Relative tumor proliferation rate T/C” value (Ba/F3 ETV6-NTRK3 cells; Day 11, 5 mg/kg bid)?
Answer: 8.73%

Question: What about the Tumor volume (Ba/F3 ETV6-NTRK3 cells; Day 11, 5 mg/kg bid) of the same molecule?
Answer: 328.91 ± 190.07 mm^3

Question: What about the “Relative tumor proliferation rate T/C” value (Ba/F3 ETV6-NTRK3 cells; Day 11, 10 mg/kg bid) of the same molecule?
Answer: 4.82%

Question: And the Tumor volume (Ba/F3 ETV6-NTRK3 cells; Day 11, 10 mg/kg bid)?
Answer: 181.69 ± 121.62 mm^3

Question: What about the “Relative tumor proliferation rate T/C” value (Ba/F3 ETV6-NTRK3 cells; Day 11, 20 mg/kg bid) of the same molecule?
Answer: 2.89%

Question: What about the Tumor volume (Ba/F3 ETV6-NTRK3 cells; Day 11, 20 mg/kg bid) of the same molecule?
Answer: 109.00 ± 116.94 mm^3

Question: What about the “TGI (tumor growth inhibition rate)” value (Ba/F3 ETV6-NTRK3 cells; 2.5 mg/kg bid) of the same molecule?
Answer: 84.33%

Question: What about the “TGI (tumor growth inhibition rate)” value (Ba/F3 ETV6-NTRK3 cells; 5 mg/kg bid) of the same molecule?
Answer: 91.27%

Question: What about the “TGI (tumor growth inhibition rate)” value (Ba/F3 ETV6-NTRK3 cells; 10 mg/kg bid) of the same molecule?
Answer: 95.18%

Question: What about the “TGI (tumor growth inhibition rate)” value (Ba/F3 ETV6-NTRK3 cells; 20 mg/kg bid) of the same molecule?
Answer: 97.11%

Question: What about the “Tumor inhibition rate (by tumor weight)” value (Ba/F3 ETV6-NTRK3 cells; 2.5 mg/kg bid) of the same molecule?
Answer: 85.47%

Question: What about the Tumor weight (Ba/F3 ETV6-NTRK3 cells; 2.5 mg/kg bid) of the same molecule?
Answer: 0.25 ± 0.15 g

Question: And the “Tumor inhibition rate (by tumor weight)” value (Ba/F3 ETV6-NTRK3 cells; 5 mg/kg bid)?
Answer: 89.51%

Question: What about the Tumor weight (Ba/F3 ETV6-NTRK3 cells; 5 mg/kg bid) of the same molecule?
Answer: 0.18 ± 0.08 g

Question: What about the “Tumor inhibition rate (by tumor weight)” value (Ba/F3 ETV6-NTRK3 cells; 10 mg/kg bid) of the same molecule?
Answer: 93.42%

Question: What about the Tumor weight (Ba/F3 ETV6-NTRK3 cells; 10 mg/kg bid) of the same molecule?
Answer: 0.12 ± 0.10 g

Question: And the “Tumor inhibition rate (by tumor weight)” value (Ba/F3 ETV6-NTRK3 cells; 20 mg/kg bid)?
Answer: 96.47%

Question: What about the Tumor weight (Ba/F3 ETV6-NTRK3 cells; 20 mg/kg bid) of the same molecule?
Answer: 0.06 ± 0.03 g

Question: And the GI50 (Ba/F3 SLC34A2-ROS1-WT)?
Answer: 0.0642 µM
